Assay results as given in US9999690B2, “Labeled compounds and methods of imaging, diagnosing cartilage disorders and diseases, and monitoring cartilage health using labeled and unlabeled compounds” (Perosphere Inc., priority 2013, dated 2018).
“And” between values parts separate entries of the source, which are not always exact repeats. Equal entries are not always repeated.

Key:
[1] = Rat mass balance recovery (urine, feces, cage rinses and wipes, carcasses, expired air), Groups 2 and 3; type: in vivo; set-up: Mass Balance Recovery, Feces Subtotal / Mass Balance Recovery, Expired Air, Trap 1 / Mass Balance Recovery, Expired Air, Trap 1 Subtotal: unit not given here; settings: for Mass Balance Recovery, Feces / Mass Balance Recovery, Cage Rinse / Mass Balance Recovery, Dose Site Wipe / Mass Balance Recovery, Urine / Mass Balance Recovery, Cage Wipe / Mass Balance Recovery, Carcass / Mass Balance Recovery, Feces Subtotal / Mass Balance Recovery, Cage Rinse Subtotal / Mass Balance Recovery, Urine Subtotal: rat Group 2, IV dose; for Mass Balance Recovery, Dose Site Wipe: 0 hrs; for Mass Balance Recovery, Cage Wipe / Mass Balance Recovery, Carcass: 96 hrs; for Mass Balance Recovery, Expired Air, Trap 1 / Mass Balance Recovery, Expired Air, Trap 1 Subtotal: rat Group 3, IV dose; for Mass Balance Recovery, TOTAL: rat Groups 2 and 3, IV dose
Experimental: (§1) A study was conducted to determine the pharmacokinetics, rates and routes of excretion with mass baseline and tissue distribution of radioactivity, after a single intravenous dose administration of formula XIII (also referred to as [^14C]DAP) was administered to the rats by tail vein intravenous injection at a
(§2) The study was conducted on 19 male rats divided into 4 groups. The first group of 6 rats was used for blood collection (Group 1); the second group of 4 rats was used for urine, feces, cage rinses and wipes and carcasses collection (Group 2); the third group of 4 rats was used for expired air collection (Group 3); the fourth group of 5 rats was used for terminal blood/serum and tissue distribution by Quantitative Whole-Body Autoradiography (QWBA) (Group 4).

[2] = Rat blood PK samples after intravenous injection, Group 1; type: in vivo; settings: rat Group 1, IV injection, in ng-eq/g
Experimental: as §1, §2

[3] = 24-48 hrs, Mean, in % (unit assumed)
[4] = 24-48 hrs, individual rats 201M-204M, in % (unit assumed)
[5] = 48-72 hrs, Mean, in % (unit assumed)
[6] = 48-72 hrs, individual rats 201M-204M, in % (unit assumed)
[7] = 72-96 hrs, Mean, in % (unit assumed)
[8] = 72-96 hrs, individual rats 201M-204M, in % (unit assumed)
[9] = individual rats 201M-204M, in % (unit assumed)

For `[2H]C1([2H])N(CCCNC(=O)[C@@H](N)CCCNC(=N)N)C([2H])([2H])C([2H])([2H])N(CCCNC(=O)[C@@H](N)CCCNC(=N)N)C1([2H])[2H]` [formula XIII], the “Mass Balance Recovery, Feces” value ([1]; 0-8 hrs, Mean, in % (unit assumed)) was 0.02, the “Mass Balance Recovery, Feces” value ([1]; 0-8 hrs, individual rats 201M-204M) was 0.00 and 0.04 (2×) and 0.01 and the “Mass Balance Recovery, Cage Rinse” value ([1]; 0-24 hrs, Mean, in % (unit assumed)) was 1.74. The “Mass Balance Recovery, Cage Rinse” value ([1]; 0-24 hrs, individual rats 201M-204M, in % (unit assumed)) was 2.48 and 0.91 and 1.94 and 1.63, the Mass Balance Recovery, Dose Site Wipe ([1]; Mean) was 0.01% and the Mass Balance Recovery, Dose Site Wipe ([1]; individual rats 201M-204M) was 0.01% (3×) and 0%. The “Mass Balance Recovery, Feces” value ([1]; 8-24 hrs, Mean, in % (unit assumed)) was 1.82, the “Mass Balance Recovery, Feces” value ([1]; 8-24 hrs, individual rats 201M-204M, in % (unit assumed)) was 1.34 and 2.04 and 2.40 and 1.49 and the “Mass Balance Recovery, Cage Rinse” value [1, 3] was 0.32. For the same molecule, the “Mass Balance Recovery, Feces” value [1, 3] was 0.93, the “Mass Balance Recovery, Urine” value [1, 3] was 3.71 and the “Mass Balance Recovery, Feces” value ([1]; 24-48 hrs, individual rats 201M-204M) was 1.18 and 0.70 (2×) and 1.15. The “Mass Balance Recovery, Cage Rinse” value [1, 4] was 0.37 and 0.21 and 0.38 and 0.30, the “Mass Balance Recovery, Urine” value [1, 4] was 3.83 and 3.59 and 4.50 and 2.92 and the “Mass Balance Recovery, Cage Rinse” value [1, 5] was 0.18. The “Mass Balance Recovery, Feces” value [1, 5] was 0.42, the “Mass Balance Recovery, Urine” value [1, 5] was 1.58 and the Mass Balance Recovery, Urine ([1]; 48-72 hrs, individual rats 201M-204M) was 1.61% (2×) and 1.73% and 1.36%. The “Mass Balance Recovery, Cage Rinse” value [1, 6] was 0.13 and 0.11 and 0.20 and 0.28, the “Mass Balance Recovery, Feces” value [1, 6] was 0.46 and 0.41 and 0.54 and 0.26 and the “Mass Balance Recovery, Cage Rinse” value [1, 7] was 0.16. For the same molecule, the “Mass Balance Recovery, Feces” value [1, 7] was 0.25, the “Mass Balance Recovery, Urine” value [1, 7] was 0.94 and the “Mass Balance Recovery, Cage Rinse” value [1, 8] was 0.12 and 0.11 and 0.24 and 0.15. For the same molecule, the “Mass Balance Recovery, Feces” value [1, 8] was 0.31 and 0.26 and 0.27 and 0.15, the “Mass Balance Recovery, Urine” value [1, 8] was 0.97 and 1.03 and 0.96 and 0.79 and the “Mass Balance Recovery, Cage Wipe” value ([1]; Mean, in % (unit assumed)) was 0.10. The “Mass Balance Recovery, Carcass” value ([1]; Mean, in % (unit assumed)) was 2.71, the “Mass Balance Recovery, Cage Wipe” value [1, 9] was 0.08 and 0.06 and 0.20 and 0.04 and the “Mass Balance Recovery, Carcass” value [1, 9] was 2.74 and 2.80 and 2.60 and 2.68. The “Mass Balance Recovery, Feces Subtotal” value ([1]; Mean) was 3.44, the “Mass Balance Recovery, Cage Rinse Subtotal” value ([1]; Mean, in % (unit assumed)) was 2.39 and the “Mass Balance Recovery, Urine Subtotal” value ([1]; Mean, in % (unit assumed)) was 89.51. The “Mass Balance Recovery, Feces Subtotal” value ([1]; individual rats 201M-204M) was 3.29 and 3.45 and 4.37 and 2.64, the “Mass Balance Recovery, Cage Rinse Subtotal” value [1, 9] was 3.10 and 1.34 and 2.76 and 2.36 and the “Mass Balance Recovery, Urine Subtotal” value [1, 9] was 89.44 and 90.60 and 87.85 and 90.14. For the same molecule, the “Mass Balance Recovery, Expired Air, Trap 1” value ([1]; 0-24 hrs, Mean) was 0.03, the “Mass Balance Recovery, Expired Air, Trap 1” value ([1]; 0-24 hrs, individual rats 301M-304M) was 0.03 (3×) and 0.02 and the “Mass Balance Recovery, Expired Air, Trap 1” value ([1]; 24-48 hrs, Mean) was 0.00. The “Mass Balance Recovery, Expired Air, Trap 1” value ([1]; 24-48 hrs, individual rats 301M-304M) was 0.00, the “Mass Balance Recovery, Expired Air, Trap 1” value ([1]; 48-72 hrs, Mean) was 0.01 and the “Mass Balance Recovery, Expired Air, Trap 1” value ([1]; 48-72 hrs, individual rats 301M-304M) was 0.00 (3×) and 0.05. The “Mass Balance Recovery, Expired Air, Trap 1 Subtotal” value ([1]; Mean) was 0.04, the “Mass Balance Recovery, Expired Air, Trap 1 Subtotal” value ([1]; individual rats 301M-304M) was 0.03 (2×) and 0.02 and 0.08 and the “Mass Balance Recovery, TOTAL” value ([1]; (201M/301M to 204M/304M), in % (unit assumed)) was 98.72 and 98.32 and 97.83 and 97.98. For the same molecule, the “Mass Balance Recovery, TOTAL” value ([1]; Mean, in % (unit assumed)) was 98.21, the “time after administration by which the vast majority is excreted (urinary excretion kinetics)” value ([1]; rat, single IV dose, FIG. 6) was under 24 h and the total recovery ([1]; rat, single intravenous administration, Groups 2 and 3, FIG. 8) was 98.21±0.4%. The “Rat Blood PK Samples” value ([2]; 0.083 hrs, Mean) was 12494.00, the “Rat Blood PK Samples” value ([2]; 0.083 hrs, individual rats) was 12283.00 and 12343.00 and 12856.00 and the “Rat Blood PK Samples” value ([2]; 0.250 hrs, Mean) was 7636.87. The “Rat Blood PK Samples” value ([2]; 0.250 hrs, individual rats) was 6989.90 and 8433.50 and 7487.20, the “Rat Blood PK Samples” value ([2]; 0.5 hrs, Mean) was 4715.77 and the “Rat Blood PK Samples” value ([2]; 0.5 hrs, individual rats) was 4890.10 and 4595.70 and 4661.50. The “Rat Blood PK Samples” value ([2]; 1 hrs, Mean) was 1639.20, the “Rat Blood PK Samples” value ([2]; 1 hrs, individual rats) was 1277.80 and 2173.10 and 1466.70 and the “Rat Blood PK Samples” value ([2]; 2 hrs, Mean) was 497.04. For the same molecule, the “Rat Blood PK Samples” value ([2]; 2 hrs, individual rats) was 513.73 and 503.14 and 474.26, the “Rat Blood PK Samples” value ([2]; 4 hrs, Mean) was 251.03 and the “Rat Blood PK Samples” value ([2]; 4 hrs, individual rats) was 244.30 and 269.75 and 239.03. For the same molecule, the “Rat Blood PK Samples” value ([2]; 8 hrs, Mean) was 187.88, the “Rat Blood PK Samples” value ([2]; 8 hrs, individual rats) was 207.32 and 187.12 and 169.19 and the “Rat Blood PK Samples” value ([2]; 12 hrs, Mean) was 145.76. The “Rat Blood PK Samples” value ([2]; 12 hrs, individual rats) was 149.71 and 148.64 and 138.94, the “Rat Blood PK Samples” value ([2]; 24 hrs, Mean) was 99.45 and the “Rat Blood PK Samples” value ([2]; 24 hrs, individual rats) was 105.64 and 108.29 and 84.43. For the same molecule, the “Rat Blood PK Samples” value ([2]; 48 hrs, Mean) was 50.56, the “Rat Blood PK Samples” value ([2]; 48 hrs, individual rats) was 49.28 and 52.03 and 50.38 and the “Rat Blood PK Samples” value ([2]; 72 hrs, Mean) was 24.63. For the same molecule, the “Rat Blood PK Samples” value ([2]; 72 hrs, individual rats) was 23.54 and 33.09 and 17.27, the “Rat Blood PK Samples” value ([2]; 96 hrs, Mean) was 17.23 and the “Rat Blood PK Samples” value ([2]; 96 hrs, individual rats) was 17.39 and 16.69 and 17.60.
